Where “and” joins values, the source holds several entries; their conditions need not be identical. Identical values can stand only once.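 Each compound was tested at five concentrations against cells in 96-well plates for 48 hours. Here, GI50 denotes the concentration required for 50% inhibition of growth. TGI: concentration producing complete growth inhibition.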
Key:
Assay in all cases: NCI-60 cell line screen, 48 h
[1] = tested on: UO-31 renal
[2] = tested on: MCF7 breast
[3] = tested on: SF-268 CNS
[4] = tested on: PC-3 prostate
[5] = tested on: RPMI-8226 leukemia
[6] = tested on: HCT-15 colon
[7] = tested on: OVCAR-3 ovarian
[8] = tested on: SN12C renal
[9] = tested on: TK-10 renal
[10] = tested on: A498 renal

Molecule COc1ccc(-c2cc(-c3ccccc3)nc(SCCCC(=O)NO)n2)cc1 has a GI50 [1] of 0.239 µM, a TGI [1] of 0.991 µM and a GI50 [2] of 1.9 µM. The TGI [2] was 10 µM, the GI50 [3] was 1.66 µM and the TGI [3] was 5.16 µM. For the same molecule, the GI50 [4] was 1.61 µM, the TGI [4] was 8.39 µM and the GI50 [5] was 0.454 µM. The TGI [5] was over 22.9 µM, the GI50 [6] was 0.387 µM and the TGI [6] was 3.34 µM. For the same molecule, the GI50 [7] was 1.2 µM, the TGI [7] was 5.17 µM and the GI50 [8] was 1.61 µM. For the same molecule, the TGI [8] was 8 µM, the GI50 [9] was 0.369 µM and the TGI [9] was 9.63 µM. It also gave a GI50 [10] of 0.816 µM and a TGI [10] of 2.53 µM.
CC(=O)NC1=C(OS(=O)(=O)c2ccc(C)cc2)CN(C)C1=O gave a TGI [1] of 14.2 µM, a TGI [2] of 11.7 µM and a TGI [3] of 45 µM. It also gave a TGI [4] of 10.1 µM, a TGI [5] of 5.77 µM and a TGI [6] of 13.2 µM. It also gave a TGI [7] of 8.14 µM, a TGI [8] of 16.4 µM and a TGI [9] of 7.97 µM. The TGI [10] was 18 µM.
CCCn1c(C)nc2c1C(=O)c1ccccc1C2=O was tested, and the GI50 [1] was 9.06 µM, the TGI [1] was 60.8 µM and the GI50 [2] was 30.9 µM. It also gave a TGI [2] of over 100 µM, a GI50 [3] of 20.8 µM and a TGI [3] of over 100 µM. For the same molecule, the GI50 [4] was 11 µM, the TGI [4] was over 100 µM and the GI50 [5] was 17.2 µM. For the same molecule, the TGI [5] was over 100 µM, the GI50 [6] was 14.2 µM and the TGI [6] was over 100 µM. It also gave a GI50 [7] of 11.6 µM, a TGI [7] of 39.2 µM and a GI50 [8] of 25.5 µM. For the same molecule, the TGI [8] was over 100 µM, the GI50 [9] was 65.2 µM and the TGI [9] was over 100 µM. It also gave a GI50 [10] of 34.6 µM and a TGI [10] of over 100 µM.
With C=CC(=O)N1CCN(c2ccc3cccc(NC(=O)c4cnc(C)cn4)c3n2)CC1 the GI50 [1] was 0.351 µM, the TGI [1] was 5.14 µM and the GI50 [2] was 3.44 µM. The TGI [2] was over 100 µM, the GI50 [3] was 3.67 µM and the TGI [3] was 49.2 µM. It also gave a GI50 [4] of 2.86 µM, a TGI [4] of 26.5 µM and a GI50 [5] of 1.5 µM. For the same molecule, the TGI [5] was 6.52 µM, the GI50 [6] was 2.08 µM and the TGI [6] was 24.6 µM. It also gave a GI50 [7] of 2.91 µM, a TGI [7] of over 100 µM and a GI50 [8] of 2.47 µM. The TGI [8] was 16.2 µM, the GI50 [9] was 1.12 µM and the TGI [9] was over 100 µM. It also gave a GI50 [10] of 0.388 µM and a TGI [10] of 4.19 µM.
With Cc1ccc(C(=O)Nc2ccc(CN3CCN(C)CC3)c(C(F)(F)F)c2)cc1C#Cc1cnc2cccnn12 the GI50 [1] was 0.34 µM and 0.349 µM, the TGI [1] was 1.52 µM and 3.19 µM and the GI50 [2] was 0.72 µM and 1.29 µM. For the same molecule, the TGI [2] was 2.17 µM and 4.42 µM, the GI50 [3] was 0.474 µM and 0.73 µM and the TGI [3] was 2.06 µM and 4.27 µM. For the same molecule, the GI50 [4] was 1.14 µM and 2.19 µM, the TGI [4] was 3.2 µM and 5.59 µM and the GI50 [5] was 0.627 µM and 1.15 µM. The TGI [5] was 3.01 µM and 4.26 µM, the GI50 [6] was 0.313 µM and 0.501 µM and the TGI [6] was 1.27 µM and 3.42 µM. The GI50 [7] was 0.785 µM and 1.36 µM, the TGI [7] was 2.07 µM and 4.2 µM and the GI50 [8] was 0.262 µM and 0.515 µM. The TGI [8] was 1.26 µM and 3.45 µM, the GI50 [9] was 0.419 µM and 0.649 µM and the TGI [9] was 1.37 µM and 2.88 µM. The GI50 [10] was 0.299 µM and 0.47 µM and the TGI [10] was 1.07 µM and 1.85 µM.
In the case of CC(C)(C)c1n[nH]c(=S)n(/N=C/c2ccc(F)c(Oc3ccccc3)c2)c1=O, the GI50 [1] is reported as 33.9 µM, the TGI [1] is reported as over 100 µM and the GI50 [2] is reported as 40.5 µM. It also gave a TGI [2] of over 100 µM, a GI50 [3] of 35.9 µM and a TGI [3] of over 100 µM. For the same molecule, the GI50 [4] was 38.6 µM, the TGI [4] was over 100 µM and the GI50 [5] was 32.5 µM. The TGI [5] was over 100 µM, the GI50 [6] was 37.7 µM and the TGI [6] was over 100 µM. It also gave a GI50 [7] of 28.3 µM, a TGI [7] of 95.7 µM and a GI50 [8] of 48.5 µM. For the same molecule, the TGI [8] was over 100 µM, the GI50 [9] was 22.2 µM and the TGI [9] was 91.4 µM. The GI50 [10] was 27.8 µM and the TGI [10] was 69.7 µM.
Molecule C[C@]12CC[C@H]3[C@@H](CCC4=CC(=O)CC[C@@H]43)[C@@H]1CC[C@@H]2OC(=O)CCc1ccccc1 has a GI50 [1] of 18.6 µM, a TGI [1] of 39.2 µM and a GI50 [2] of 15.3 µM. It also gave a TGI [2] of 31.1 µM, a GI50 [3] of 15.1 µM and a TGI [3] of 29.6 µM. The GI50 [4] was 24.4 µM, the TGI [4] was over 84.2 µM and the GI50 [5] was 14.6 µM. It also gave a TGI [5] of 47 µM, a GI50 [6] of 24.6 µM and a TGI [6] of over 89.7 µM. It also gave a GI50 [7] of 15.8 µM, a TGI [7] of 30 µM and a GI50 [8] of 15.2 µM. It also gave a TGI [8] of 29.7 µM, a GI50 [9] of 14.5 µM and a TGI [9] of 33.7 µM. For the same molecule, the GI50 [10] was 16.2 µM and the TGI [10] was 30.8 µM.
COc1ccc(-c2n[nH]nc2-c2cc(OC)c3c(c2OC)OCO3)cc1 gave a GI50 [1] of 3.83 µM, a TGI [1] of 46.6 µM and a GI50 [2] of 0.48 µM. It also gave a TGI [2] of 35.2 µM, a GI50 [3] of 2.98 µM and a TGI [3] of 54.3 µM. For the same molecule, the GI50 [4] was 1.87 µM, the TGI [4] was over 100 µM and the GI50 [5] was 0.751 µM. It also gave a TGI [5] of 37.7 µM, a GI50 [6] of 0.546 µM and a TGI [6] of over 100 µM. The GI50 [7] was 0.378 µM, the TGI [7] was 2.71 µM and the GI50 [8] was 4.86 µM. It also gave a TGI [8] of 83.7 µM, a GI50 [9] of 4.85 µM and a TGI [9] of 79.8 µM. The GI50 [10] was 0.312 µM and the TGI [10] was 6.38 µM.
In the case of COc1cccc(NC(=O)c2sc3nc4c(cc3c2N)CN(Cc2ccccc2)CC4)c1, the GI50 [1] is reported as 3.27 µM, the TGI [1] is reported as 32.3 µM and the GI50 [2] is reported as 0.62 µM. The TGI [2] was over 100 µM, the GI50 [3] was 3.66 µM and the TGI [3] was 20.7 µM. It also gave a GI50 [4] of 11.6 µM, a TGI [4] of 91.1 µM and a GI50 [5] of 38.9 µM. The TGI [5] was over 100 µM, the GI50 [6] was 0.93 µM and the TGI [6] was over 100 µM. For the same molecule, the GI50 [7] was 7.53 µM, the TGI [7] was 26.9 µM and the GI50 [8] was 11.2 µM. It also gave a TGI [8] of over 100 µM, a GI50 [9] of 4.82 µM and a TGI [9] of 21.6 µM. For the same molecule, the GI50 [10] was 3.82 µM and the TGI [10] was 24.4 µM.
O=C(NN1C(=O)CSC12CCCCC2)c1[nH]c2ccc(F)cc2c1-c1ccccc1 gave a GI50 [1] of 27.8 µM, a TGI [1] of 80.9 µM and a GI50 [2] of 19.4 µM. The TGI [2] was 37.3 µM, the GI50 [3] was 22.7 µM and the TGI [3] was 59.6 µM. For the same molecule, the GI50 [4] was 18.8 µM, the TGI [4] was 35.9 µM and the GI50 [5] was 15.7 µM. It also gave a TGI [5] of 37 µM, a GI50 [6] of 32.3 µM and a TGI [6] of over 100 µM. For the same molecule, the GI50 [7] was 18.8 µM, the TGI [7] was 32.9 µM and the GI50 [8] was 18.2 µM. The TGI [8] was 37.5 µM, the GI50 [9] was 19.4 µM and the TGI [9] was 35.7 µM. For the same molecule, the GI50 [10] was 27.1 µM and the TGI [10] was 76.5 µM.
In the case of Cc1cc2c3ccc(C)[n+](C)c3ccc2n1C, the GI50 [1] is reported as 3.79 µM, the TGI [1] is reported as over 100 µM and the GI50 [2] is reported as 4.07 µM. The TGI [2] was 90 µM, the GI50 [3] was 2.99 µM and the TGI [3] was 15.9 µM. For the same molecule, the GI50 [4] was 1.26 µM, the TGI [4] was 9.11 µM and the GI50 [5] was 1.32 µM. It also gave a TGI [5] of 23.3 µM, a GI50 [6] of over 100 µM and a TGI [6] of over 100 µM. For the same molecule, the GI50 [7] was 3.45 µM, the TGI [7] was 23.2 µM and the GI50 [8] was 2.69 µM. For the same molecule, the TGI [8] was 15.9 µM, the GI50 [9] was 13 µM and the TGI [9] was over 100 µM. The GI50 [10] was 0.357 µM and the TGI [10] was 3.8 µM.
C/C(=N\Nc1ccc2ccccc2n1)c1ccccn1 gave a GI50 [1] of under 0.0395 µM, a TGI [1] of 0.676 µM and a GI50 [2] of 0.102 µM. The TGI [2] was 5.21 µM, the GI50 [3] was 0.0489 µM and the TGI [3] was 10.8 µM. For the same molecule, the TGI [4] was 7.23 µM, the GI50 [5] was 0.0897 µM and the TGI [5] was 2.89 µM. For the same molecule, the TGI [6] was 5.72 µM, the GI50 [7] was under 0.0192 µM and the TGI [7] was 4.24 µM. The GI50 [8] was 0.0914 µM, the TGI [8] was 14.9 µM and the GI50 [9] was 0.197 µM. It also gave a TGI [9] of 16.1 µM, a GI50 [10] of 0.239 µM and a TGI [10] of 2.48 µM.
Molecule O=C(c1ccccc1)C(CN1CCOCC1)c1ccccc1 (stereo not drawn) has a GI50 [1] of 1.41 µM, a TGI [1] of 3.02 µM and a GI50 [2] of 1.25 µM. The TGI [2] was 2.66 µM, the GI50 [3] was 1.65 µM and the TGI [3] was 3.47 µM. The GI50 [4] was 2.93 µM, the TGI [4] was 13.3 µM and the GI50 [5] was 0.793 µM. The TGI [5] was 4.74 µM, the GI50 [6] was 0.641 µM and the TGI [6] was 2.21 µM. It also gave a GI50 [7] of 0.465 µM, a TGI [7] of 1.66 µM and a GI50 [8] of 1.73 µM. For the same molecule, the TGI [8] was 4.47 µM, the GI50 [9] was 1.19 µM and the TGI [9] was 2.44 µM. For the same molecule, the GI50 [10] was 2.49 µM and the TGI [10] was 11.2 µM.
